Experimental data: patent US20050107315A1, “Mammary-associated serum amuloid a3 promoter sequences and used for same” (Board of Regents of the University of Nebraska, priority 2001, published 2005)

How the values were obtained:
MUC2 mRNA = MUC2 mRNA induction in intestinal epithelial cells (MUC2 mRNA/28S rRNA ratio); assay type: cell-based, human; settings: for MUC2 mRNA/28S rRNA ratio, mean: conditions favoring MUC2 expression, peptides at conditions optimized for MUC3 (50 μg/ml, 30 min), control = 100
Source text: (§1) These four peptides were used in a cell culture assay designed to evaluate them for their properties of inducing mucin (MUC) mRNA production, either MUC3 or MUC2 according to the methods described by Mack et al. (Biochem. Biophys. Res. Commun. 199: 1012-1018, 1994 and Am J Physiol. Vol. 4, part 1, pg. G841-950, 1999).
MUC2 Stimulation. To address whether the N-Terminal 10 amino acid bovine colostrum-SAA peptide would stimulate mRNA synthesis for MUC2 production, intestinal epithelial cells were cultured under conditions favoring MUC2 expression rather than MUC3. All peptides were used at concentrations and conditions that were previously optimized for MUC3 stimulation. None of the peptides stimulated the production of MUC2 mRNA. […] Additionally, conditions were changed to 2× the optimum MUC3 incubation time (1 hr). […] The evidence strongly indicates specificity of function in stimulating the production of a mucin produced mainly in the small intestine (MUC3) over one produced primarily in the large intestine (MUC2).

MUC3 mRNA = MUC3 mRNA induction in intestinal epithelial cells (MUC3 mRNA/28S rRNA ratio); assay type: cell-based, human; settings: for MUC3 mRNA/28S rRNA ratio, mean / MUC3 mRNA stimulation (in words): peptides at 50 μg/ml, 30 minutes at 37° C.; for MUC3 mRNA/28S rRNA ratio, mean / MUC3/28S rRNA ratio, mean: control = 100; for MUC3 mRNA stimulation (in words): versus control; for MUC3/28S rRNA ratio, mean: 30 min 37° C.
Source text: (§2) Different mucin genes have been identified and to date, thirteen human mucin genes have been identified. However, MUC3 mucin is the predominant small intestinal mucin. It has previously been shown that the MUC3 mucins are effective in preventing the adherence of enteropathogenic Escherichia coli (EPEC) to intestinal epithelial cells. […] It is also well known that breast-feeding infants are far less susceptible to infectious diarrhea than formula fed infants. There are a number of theories why this is so, but it is hypothesized that milk-associated amyloid (colostrum SAA) may be an important inducer of MUC3 gene expression. Applicant has evaluated MUC3 mRNA expression using an in vitro human cell culture assay system. […] To further explore this finding, Applicant has evaluated the functional specificity of the N-terminal peptide sequence of colostrum SAA by evaluation of MUC3 expression in the same in vitro assay using colostrum SAA N-terminal peptide sequences that have been randomly scrambled and a colostrum SAA peptide sequence downstream of the N-terminal sequence. If the expression of MUC3 is increased then intestinal cells grown in the presence of colostrum SAA should have a greater capacity to inhibit adherence of bacterial pathogens. This was studied (FIG. 2B) using EPEC in an in vitro assay system pre-incubated with colostrum SAA in the cell culture medium. Enteropathogenic E. coli are non-invasive, non-toxin producing pathogens that have been recognized as a significant cause of diarrhea in third world countries and in day care settings in developed countries. Future studies will evaluate the benefits of colostrum SAA in in vivo studies as well as characterized animal equivalent to human EPEC. Colostrum associated SAA provides a means to naturally upregulate the innate protective mechanisms of the human intestine and would provide a novel form of therapy to a common problem that occurs all too often in the third world leads to death of infants and in the developed world countries and leads to significant morbidity and cost. Thus, this is an effective, natural, non-drug/chemical therapy for all infectious diarrhea.
as §1
Intestinal epithelial cells, Mack et al. 1994, 1999, were exposed to the N-terminal 10 amino acid bovine colostrum-SAA peptide at various concentrations for 30 minutes incubation at 37° C. The cells were incubated an additional hour following replacement of the test medium with fresh medium without peptide and then the total cellular mRNA isolated and analyzed for MUC3 specific mRNA.
MUC3 stimulating activity of the N-terminal 10 amino acid bovine colostrum-SAA peptide was compared to the activity of the “Limited Scramble”, the “Total Scramble” and “C-Terminal peptides”. Optimum time and temperature of incubation and concentration of peptides was for 30 minutes at 37° C. at 50 μg/ml respectively.

[1] = test system: EPEC adherence to HT29 human intestinal cells; test: Inhibition of EPEC adherence to HT29 cells (FIG. 4B); assay type: cell-based, enteropathogenic Escherichia coli; settings: before 10^6 CFU/well EPEC, 3 h incubation, P<0.03
Description: FIG. 4B is a graph showing the comparative inhibition of EPEC adherence to HT29 human intestinal cells grown in a glucose-free galactose-containing cell culture medium to enhance MUC3 expression. Each well received either 10^9 CFU of the probiotic L. rhamnosus strain GG (LrGG), a single dose (1×) of the 10-mer peptide at 50 μg/mL (LS, Bov50, or Hum50) or at 250 μg/mL (Bov250 or Hum250), or two separate doses (2×) at 1 h intervals of the 10-mer peptide at 250 μg/mL. Samples were incubated at 37° C. with the HT29 cells for either a total of 1 h (single dose, 1×) or 2 h (two doses, 2×) prior to the addition of 10^6 CFU/well of EPEC. After a 3 h incubation, EPEC adherent to the HT29 cells were quantified by determining CFU/well. Results are expressed as means ±SEM of 2-6 independent experiments run in triplicate. Amino acid sequences for the 10-mer peptides are detailed in Table 1 referred to on page 37.
as §2, with “Colostrum associated SAA provides a means to naturally upregulate the innate protective mechanisms of the human intestine and would provide a novel form of therapy to a common problem that occurs all too often in the third world leads to death of infants and in the developed world countries and leads to significant morbidity and cost. Thus, this is an effective, natural, non-drug/chemical therapy for all infectious diarrhea.” left out

[2] = test system: Bovine MAC-T mammary gland epithelial cells; test: Colostrum-SAA production by MAC-T cells stimulated with prolactin (ELISA of growth media); assay type: cell-based
Description: Bovine MAC-T mammary gland epithelial cells were obtained from ATCC (CRL-10274) and cultured according to recommended conditions (Turner, J D and Huynh H. Immortalized bovine mammary epithelial cell line. U.S. Pat. No. 5,227,301 dated Jul. 13, 1993). MAC-T cells were cultured on Dulbecco's Modified Eagles Media (DMEM) supplemented with 10% Fetal Calf Serum (FCS), 5 μg/ml insulin, 1μg/ml hydrocortisone and fungizone. Cells were incubated at 37° C. with 5% CO2. For colostrum-SAA production the cells were seeded onto type I Collagen coated plates. After 14 hours of incubation, the cells were washed twice with Dulbecco's phosphate buffered saline (DPBS) and incubated in media (DMEM, 5 μg/ml insulin, 1 μg/ml hydrocortisone and 2.5% FCS) supplemented with prolactin from sheep pituitary gland (5 μg/ml) for the stimulation of colostrum-SAA production. Approximately one half of the media was replaced daily with fresh prolactin supplemented media. Standard ELISA for the quantitation of SAA was used to assay aliquots of the growth media collected on the different days for the presence of colostrum-SAA.
Cells were kept in culture for 41 days in media supplemented with prolactin. Levels of colostrum-SAA production reached a maximum of almost 3000 ng/ml.

[3] = Isoelectric focusing / 2-D gel of SAA preparations; assay type: physicochemical, bovine
Source text: The PROTEIN IEF Cell (BioRad) was used for the isoelectric focusing of the various SAA preparations. Ready Strip IPG Strips (BioRad Laboratories) with a pH range of 3-10 were used for the IEF. The second dimension (2-D) of the protein analysis was done by subjecting the IPG strips to 12% SDS-PAGE gel and electroblotting onto a PVDF membrane. The strips and blots were done in duplicate so that one of the blots could be stained with a protein stain, Coomassie Brilliant Blue, (CBB) and the other stained with the anti-SAA monoclonal antibody for the identification of the SAA protein isoforms. The samples also contained internal IEF standards (BioRad Laboratories) so that isoelectric point (pI) of each SAA isoforms could be determined. By comparing the antibody stained spots to the spots of the standards stained with CBB the apparent pI of the SAA isoforms could be determined. All of these procedures were done according to the protocol recommended by the manufacturer.
The proteins subjected to the IEF and 2-D analysis were either affinity purified as described for the cell culture fluid or, in the case of the serum only semi-purified by hydrophobic chromatography. SAA is a highly hydrophobic molecule and will bind readily to Octyl Sepharose beads and then under the appropriate conditions can be eluted off the matrix. Briefly, serum with an elevated SAA level was tumbled for one hour with an equal volume of Octyl Sepharose CL-4B gel to allow for hydrophobic binding of the proteins from the serum to the gel. […]
The PROTEIN IEF Cell (BioRad) was used for the isoelectric focusing of the MAA preparations. […] Ready strip IPG Strips (BioRad Laboratories) with a pH range of 3-10 and 7-10 were used for the IEF. […] By comparing the spots stained with the antibody on the blot of the 2D gel from the MAA purified from colostrum and the MAA from the culture fluid of MAC-T cells stimulated with LPS, the similarities of the isoforms could be determined. Each sample was first analyzed on a pH 3-10 IPG strip for the first dimension of separation and then a subsequent sample analyzed on a pH 7-10 IPG strip.

## GKFAWEGMTL [Total Scramble, control peptide, amino acids of the entire N-Terminal peptide arranged in random order, reference compound]
MUC2 mRNA
  MUC2 mRNA/28S rRNA ratio, mean: 65.833
MUC3 mRNA
  MUC3 mRNA/28S rRNA ratio, mean: 109.333

## GWLTFLKAAG [Hum]
[1]; 10-mer peptide at 50 μg/mL
  EPEC adherence to HT29 cells relative to untreated cells (in words): significantly decreased adherence of EPEC
[1]; 10-mer peptide at 250 μg/mL
  EPEC adherence to HT29 cells relative to untreated cells (in words): significantly decreased adherence of EPEC

## MWGLTKFEAG [Limited Scramble, Bovine MAA with TFLK motif scrambled]
MUC2 mRNA
  MUC2 mRNA/28S rRNA ratio, mean: 87.167
MUC3 mRNA
  MUC3 mRNA/28S rRNA ratio, mean: 95.000
  MUC3 mRNA stimulation (in words): lack of stimulation

## MWGTFLKEAG [N-terminal]
MUC2 mRNA; 100 and 500 μg/ml, and 2× incubation time (1 hr)
  MUC2 mRNA stimulation (in words): None of these changes resulted in MUC2 mRNA increase over control values
MUC2 mRNA; concentrations and conditions optimized for MUC3 stimulation
  MUC2 mRNA stimulation (in words): not significantly different
MUC2 mRNA
  MUC2 mRNA/28S rRNA ratio, mean: 101.167
[1]; 10-mer peptide at 50 μg/mL
  EPEC adherence to HT29 cells relative to untreated cells (in words): significantly decreased adherence of EPEC
[1]; 10-mer peptide at 250 μg/mL
  EPEC adherence to HT29 cells relative to untreated cells (in words): significantly decreased adherence of EPEC
MUC3 mRNA; 30 minutes incubation at 37° C.
  optimum concentration for MUC3 mRNA stimulation: 50 µg/mL
MUC3 mRNA; peptide concentration 1 (μg/ml)
  MUC3/28S rRNA ratio, mean: 105.429
MUC3 mRNA; peptide concentration 10 (μg/ml)
  MUC3/28S rRNA ratio, mean: 105.857
MUC3 mRNA; peptide concentration 25 (μg/ml)
  MUC3/28S rRNA ratio, mean: 145.000
MUC3 mRNA; peptide concentration 50 (μg/ml)
  MUC3/28S rRNA ratio, mean: 220.500
MUC3 mRNA; peptide concentration 100 (μg/ml)
  MUC3/28S rRNA ratio, mean: 103.125
MUC3 mRNA
  MUC3 mRNA/28S rRNA ratio, mean: 174.833
  MUC3 mRNA stimulation (in words): increased MUC3 mRNA expression
MUC3 mRNA; listed as N-Terminal
  MUC3 mRNA stimulation (in words): the only peptide that stimulated MUC3 mRNA statistically significantly over the control values

## SAADAAQRGPQQA [C-terminal, control 10 amino acid peptide in which the first 7 were from residues 62-69 of bovine SAA, reference compound]
MUC2 mRNA
  MUC2 mRNA/28S rRNA ratio, mean: 67.500
MUC3 mRNA
  MUC3 mRNA/28S rRNA ratio, mean: 111.333

B1: prolactin: prolactin from sheep pituitary gland (protein, UniProt P01240 31-229, looked up)
Prolactin: TPVCPNGPGNCQVSLRDLFDRAVMVSHYIHNLSSEMFNEFDKRYAQGKGFITMALNSCHTSSLPTPEDKEQAQQTHHEVLMSLILGLLRSWNDPLYHLVTEVRGMKGVPDAILSRAIEIEEENKRLLEGMEMIFGQVIPGAKETEPYPVWSGLPSLQTKDEDARHSAFYNLLHCLRRDSSKIDTYLKLLNCRIIYNNNC
[2]; media supplemented with prolactin 5 μg/ml, 41 days in culture, collagen coated plates
  maximum level of colostrum-SAA production: ~3000 ng/mL
[2]; prolactin at 5 μg/ml, MAC T cells, 13 days of stimulation (FIG. 2)
  day by which measurable quantities of colostrum-SAA could be detected: ≤ 1 days

B2: colostrum-SAA: bovine mammary-associated serum amyloid A 3, purified from colostrum or MAC-T cell culture fluid (protein)
chain: QRWGTFLKEAGQGAKDMWRAYQDMKEANYRGADKYFHARGNYDAARRGPGGAWAAKVISNARETIQGITDPLFKGMTRDQVREDSKADQFANEWGRSGKDPNHFRPAGLPDKY
[3]; from both colostrum and MAC-T cell culture fluid (prolactin), pH 3-10 IPG strips
  pI: greater than 8
[3]; pH 3-10 IPG strips, internal IEF standards
  apparent pI: 9.4-9.6
[3]; purified from culture fluid of MAC-T cells stimulated with LPS, only one isoform, pH 3-10 and 7-10 IPG strips
  pI: 9.4-9.6
